Legend:
[1] = biological target: Glutaminyl-peptide cyclotransferase-like protein (Homo sapiens, UniProt Q9NXS2); assay: QPCTL Enzymatic Activity Assay
Method: QPCTL activity was measured in a coupled-enzyme assay using the QPCTL substrate, glutamine-7-amido-4-methylcoumarin (H-Gln-AMC, Bachem), which is converted to pyroglutamyl-AMC by QPCTL. Pyroglutamyl-AMC is then converted to the fluorescent molecule, AMC, by incubation with the human enzyme pyroglutamyl peptidase-1. […] Final concentrations of DMSO and test compounds were 2% and 30-100 μM, respectively. Following the incubation, H-Gln-AMC substrate was diluted in assay buffer and added to each well for a final concentration of 10 μM. The reaction was incubated for 60 min at 37° C., before stopping it by boiling at 100° C. for 5 minutes and cooling the plate at 4° C. for 3 minutes. […] Following incubation, the fluorescence was measured with a plate reader using excitation at 380 nm and emission at 460 nm.

[2] = biological target: Glutaminyl-peptide cyclotransferase (Homo sapiens, UniProt Q16769); assay: QPCT Enzymatic Activity Assay
Method: QPCT activity was measured in a coupled-enzyme assay using the QPCT substrate, glutamine-7-amido-4-methylcoumarin (H-Gln-AMC, Bachem), which is converted to pyroglutamyl-AMC by QPCT. Pyroglutamyl-AMC is then converted to the fluorescent molecule, AMC, by incubation with the human enzyme pyroglutamyl peptidase-1 (PGPEP-1). […] Following the incubation, H-Gln-AMC substrate was diluted in assay buffer and added to each well for a final concentration of 10 μM. The reaction was incubated for 60 min at 37° C., before stopping it by boiling at 100° C. for 5 minutes and cooling the plate at 4° C. for 3 minutes. […] Following incubation, the fluorescence was measured with a plate reader using excitation at 380 nm and emission at 460 nm.

Glutaminyl-peptide cyclotransferase-like protein, sequence (Q9NXS2 whole entry): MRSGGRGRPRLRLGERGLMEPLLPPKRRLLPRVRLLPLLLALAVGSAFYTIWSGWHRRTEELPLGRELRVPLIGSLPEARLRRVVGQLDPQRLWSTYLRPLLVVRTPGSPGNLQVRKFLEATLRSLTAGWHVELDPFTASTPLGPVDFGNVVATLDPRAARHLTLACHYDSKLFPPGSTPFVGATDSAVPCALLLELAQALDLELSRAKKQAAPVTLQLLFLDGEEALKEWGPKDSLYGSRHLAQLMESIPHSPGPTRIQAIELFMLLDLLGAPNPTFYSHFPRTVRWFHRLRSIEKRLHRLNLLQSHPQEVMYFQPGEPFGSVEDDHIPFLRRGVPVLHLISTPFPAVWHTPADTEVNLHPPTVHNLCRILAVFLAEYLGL
Glutaminyl-peptide cyclotransferase, sequence (Q16769 whole entry): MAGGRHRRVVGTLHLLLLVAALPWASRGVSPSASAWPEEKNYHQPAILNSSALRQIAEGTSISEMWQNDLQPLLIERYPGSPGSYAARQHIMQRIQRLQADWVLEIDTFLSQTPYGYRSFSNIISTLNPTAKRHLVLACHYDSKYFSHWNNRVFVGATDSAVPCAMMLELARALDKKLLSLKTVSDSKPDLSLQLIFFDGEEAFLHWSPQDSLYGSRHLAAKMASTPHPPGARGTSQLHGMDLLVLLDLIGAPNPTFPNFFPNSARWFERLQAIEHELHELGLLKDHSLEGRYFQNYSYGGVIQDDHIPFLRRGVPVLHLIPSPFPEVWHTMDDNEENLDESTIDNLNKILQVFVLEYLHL

## Cn1cncc1C1CCN(c2c(C#N)ccnc2-c2ccc(F)nc2)CC1 [US20240101544, Example 134]
[1]
  IC50: < 100 nM
[2]
  IC50: < 100 nM

From BindingDB's records for patent US20240101544 (2024)
